# In patent US11952328B2, “Selective ship inhibitors for treating disease” (THE RESEARCH FOUNDATION FOR THE STATE UNIVERSITY OF NEW YORK, priority 2018, dated 2024):
# Test system: MC-38 colon carcinoma cells
# Assay: Subcutaneous MC-38 colon carcinoma model
# Type: in vivo, C57BL/6 mice
# Method: FIG. 7A and FIG. 7B show CT26 (FIG. 7A) and MC-38 (FIG. 7B) viability following in vitro treatment with 3AC for 24 h at indicated doses. Relative viability is expressed as frequency compared to solvent only treated cells. Kill curve summarizes pooled data from three independent experiments using six replicate wells/concentration with mean±SEM indicated. BALB/C mice were challenged with subcutaneous injection of CT26 colon carcinoma cells in the right flank. Mice were treated with either 2 consecutive days of 3AC or vehicle control each week as in FIG. 4A. Tumor size at […] 28 days (FIG. 7C), and tumor weight on day 28 determined after dissection of tumor (FIG. 7E). […] C57BL/6 mice were challenged with subcutaneous injection of MC-38 colon carcinoma cells in the right flank. Mice were treated with either 2 consecutive days of SHIP inhibitor or vehicle control each week as in FIG. 4A. Tumor size at 14, 21 and 25 days (FIG. 7D), and tumor weight (FIG. 7F) on day 25 were determined after dissection of tumor. […] FIG. 7A (n=18 per group. One-way ANOVA with Dunnett's multiple comparisons. 0 μM vs. 20 μM Adjusted p value=0.0463. All other concentrations of SHIP inhibitor compared with solvent only N.S.). FIG. 7B (n=18 per group. One-way ANOVA with Dunnett's multiple comparisons. All concentrations of SHIP inhibitor compared with solvent only N.S.). FIGS. 7C-7F graphs represent data from one of two independent experiments. FIG. 7C (n=10. Day 14 p<0.0001, Unpaired t test with Welch's correction. Day 21 p<0.0001, two-tailed student's t-test. Day 28 p<0.0001, two-tailed Student's t-test). FIG. 7E (n=10. P<0.0001, two-tailed Student's t-test) FIG. 7D (n=10. Day 14 p=0.0005, two-tailed student's t-test. Day 21 p=0.0009, two-tailed Student's t-test. Day 25 p=0.0009, two-tailed student's t-test). FIG. 7F (n=10. P=0.0067, two-tailed student's t-test).
# Colorectal cancer is the second leading cause of cancer mortality in the United States (Siegel, R. L. et al., Colorectal cancer statistics, 2017. CA Cancer J Clin. (2017)). […]
smiles,measurement,setting,value
"CC(C)CCC[C@@H](C)[C@H]1CC[C@H]2[C@@H]3CCC4C[C@H](N)CC[C@]4(C)[C@H]3CC[C@]12C (stereo partly drawn) [Compound 3AC, 3-α-aminocholestane]",tumor weight,"day 25, vs vehicle",significant reduction
same,tumor size,"two consecutive days each week, days 14, 21, 25, vs vehicle",significant reduction
same,histological analysis (H&E) of tumors,vs vehicle,prominent zones of tumor cell death
